Measured values: publication PMC10517971, “An inverse agonist of orphan receptor GPR61 acts by a G protein-competitive allosteric mechanism” (Nature Communications, 2023)
Where “and” joins values, the source holds several entries; their conditions need not be identical. Equal entries are not always repeated. Where two headings read alike, the source gives them in different places.

Target: T1, human GPR61 V288A (Homo sapiens, UniProt Q9BZJ8, V288A)
T1 construct: expressed in transfected cells; host or cells: CHO-K1, transient (Fugene6)
Test: Functional cAMP assay (HTRF), transiently transfected CHO-K1 cells, GPR61 V288A mutant
Type: cell-based
Conditions: for IC50: Fig. 3e table
Excerpt: The human GPR61 (reference sequence NM_031936.4) cDNA was synthesized and subcloned into pcDNA5/FRT/TO (Thermo Fisher, Pittsburgh, PA). The pcDNA5/FRT/TO/ human GPR61 plasmid was then transfected into the Flp-In™-CHO Cell Line (Thermo Fisher, Pittsburgh, PA) and a doxycycline-inducible clonal cell line was selected (CHO TREx hGPR61 WT). Sequences encoding untagged and HiBit/hemagglutinin (HA)-tagged versions of the wild-type human GPR61 were synthesized and cloned into pcDNA3.1. The HiBit ([…]) and HA ([…]) tags were sequentially included after the N-terminal initiator methionine. Four single amino acid substitutions (N137A, R140A, V288A, N345A) were then introduced in the untagged and tagged human GPR61 constructs using site-specific mutagenesis. The nucleotide sequences of all receptor constructs were confirmed by automated DNA sequencing.
Parental CHO-K1 cells were maintained at 37 °C in a humidified environment (5% CO2) and grown in Dulbecco’s Modified Eagle Medium (DMEM) F-12 media (Gibco, 11320033) supplemented with 10% FBS, 1% Glutamax (Gibco, 35050061) and 100units/ml penicillin and streptomycin (Gibco, 15140122. Cells were dissociated using a cell dissociation solution (Gibco, 13151-014), counted, and resuspended in complete culture media without antibiotics. Cells were then transiently transfected using Fugene6 (Promega) in a 384-well plate format (Corning, 3570). For each well, 7500 cells were transfected with 5 ng of receptor plasmid, 20 ng of carrier DNA (Promega, PAE4881) and 0.075 μl Fugene6 in a final volume of 25 μl. Fugene6 and DNA were separately diluted in Optimem media (Gibco, 31985070) (1.25 μl final volume each). Fugene6 and DNA solutions were then combined and incubated for 15 min at room temperature. The cell containing solution (22.5 μl) was then added and transfection reactions were mixed and transferred to the assay plate. Following 24 h incubation at 37 °C, wells were rinsed once and 25 μl of HiBit assay buffer (Phenol-red free DMEM F-12 media containing 2% FBS) was added per well. Surface and total receptor expression was measured separately by adding 25 μl per well of the extracellular (Promega, PRN2421) and lytic (Promega, PRN3040) assay solutions, respectively. Plates were incubated for 10 min at room temperature on a shaker and luciferase activity was measured using an EnVision plate reader (Perkin Elmer, Chicago, IL). Expression was normalized as percent of the wild-type receptor signal. Statistical comparisons of expression levels observed with WT versus GPR61 mutants were made by one-way analysis of variance with Dunnett’s post hoc test.
A homogeneous Time-Resolved Fluorescence (HTRF) assay (Perkin Elmer, Dynamic2 kit #) was used to assess receptor basal and inverse agonist activity at human GPR61, GPR62, and GPR101. […]

T1 sequence (Q9BZJ8 whole entry V288A): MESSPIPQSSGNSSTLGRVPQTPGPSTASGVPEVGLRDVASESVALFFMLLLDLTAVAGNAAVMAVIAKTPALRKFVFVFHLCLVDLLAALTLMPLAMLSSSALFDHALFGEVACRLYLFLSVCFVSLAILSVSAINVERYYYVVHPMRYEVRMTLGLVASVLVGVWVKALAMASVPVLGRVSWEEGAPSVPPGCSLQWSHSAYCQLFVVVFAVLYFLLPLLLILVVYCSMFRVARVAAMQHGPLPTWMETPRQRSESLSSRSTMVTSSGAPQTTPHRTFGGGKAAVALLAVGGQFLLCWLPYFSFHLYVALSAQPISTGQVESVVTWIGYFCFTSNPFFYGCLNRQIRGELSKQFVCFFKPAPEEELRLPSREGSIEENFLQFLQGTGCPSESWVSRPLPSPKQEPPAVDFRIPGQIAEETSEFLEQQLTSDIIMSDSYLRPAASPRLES

Question: Which results are given for `CCOc1cc(C)nc(N(CCOC)S(=O)(=O)c2ccc(NCc3c(F)cncc3F)nc2OC)n1` [Compound 1]?
Answer: IC50 (HiBit-tagged, read-out: GPR61 cAMP IC50 (95% CI), V288A HiBit-tagged): 0.4 µM; IC50 (untagged, read-out: GPR61 cAMP IC50 (95% CI), V288A Untagged): 0.406 µM; cAMP response (Figure 3e source data) (HiBit V288A, concentration -6): 0.67 and 0.63 and 0.87 and 1.10 and 0.64 and 0.60; sensitivity of the receptor to inverse agonism in the cAMP assay (V288A mutant vs wild-type): less sensitive
